For five molecules, IC50 results are on record in PMC6236447 (Molecules : A Journal of Synthetic Chemistry and Natural …, 2001).

Where a SMILES comes first, the peptide text is derived from it. [ ]: non-standard residue; d: D form. Ahx = NCCCCCC(=O)O

What is called IC50 is the concentration that gives 50% inhibition.

One assay has as its target T1, hY5-receptor (Homo sapiens, UniProt Q15761).
T1 sequence (Q15761 1-445): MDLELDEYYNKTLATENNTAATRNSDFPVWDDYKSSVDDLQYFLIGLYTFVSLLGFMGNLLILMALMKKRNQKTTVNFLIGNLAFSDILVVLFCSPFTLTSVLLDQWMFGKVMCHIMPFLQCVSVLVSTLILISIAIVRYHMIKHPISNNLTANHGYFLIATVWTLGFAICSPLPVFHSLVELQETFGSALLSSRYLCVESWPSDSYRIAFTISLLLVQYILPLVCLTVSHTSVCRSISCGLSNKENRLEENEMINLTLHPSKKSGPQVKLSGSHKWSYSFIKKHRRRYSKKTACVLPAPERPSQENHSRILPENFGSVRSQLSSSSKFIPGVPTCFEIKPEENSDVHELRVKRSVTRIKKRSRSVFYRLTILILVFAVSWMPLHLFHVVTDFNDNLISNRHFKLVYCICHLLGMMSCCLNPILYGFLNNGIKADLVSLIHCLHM
Nature of the assay: Radioligand displacement binding on transfected BHK membranes. Background: In a radioligand displacement assay an active substance lowers the binding of a labelled ligand.

The target in another assay is hY4-receptor (Homo sapiens, UniProt P50391). The assay is described as above.
Chain of hY4-receptor (P50391 whole entry): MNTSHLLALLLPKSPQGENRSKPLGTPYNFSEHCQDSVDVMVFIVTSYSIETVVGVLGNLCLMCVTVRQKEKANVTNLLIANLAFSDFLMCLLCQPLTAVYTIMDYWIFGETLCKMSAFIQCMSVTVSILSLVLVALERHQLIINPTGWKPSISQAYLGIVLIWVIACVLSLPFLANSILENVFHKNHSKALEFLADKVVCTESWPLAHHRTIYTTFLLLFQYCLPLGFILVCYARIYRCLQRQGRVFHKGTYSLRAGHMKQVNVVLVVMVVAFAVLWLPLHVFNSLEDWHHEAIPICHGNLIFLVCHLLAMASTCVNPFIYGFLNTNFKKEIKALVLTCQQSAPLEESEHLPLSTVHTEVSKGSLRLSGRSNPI
A further assay deals with T2, hY1-receptor (Homo sapiens, UniProt P25929).
T2 sequence (P25929 1-384): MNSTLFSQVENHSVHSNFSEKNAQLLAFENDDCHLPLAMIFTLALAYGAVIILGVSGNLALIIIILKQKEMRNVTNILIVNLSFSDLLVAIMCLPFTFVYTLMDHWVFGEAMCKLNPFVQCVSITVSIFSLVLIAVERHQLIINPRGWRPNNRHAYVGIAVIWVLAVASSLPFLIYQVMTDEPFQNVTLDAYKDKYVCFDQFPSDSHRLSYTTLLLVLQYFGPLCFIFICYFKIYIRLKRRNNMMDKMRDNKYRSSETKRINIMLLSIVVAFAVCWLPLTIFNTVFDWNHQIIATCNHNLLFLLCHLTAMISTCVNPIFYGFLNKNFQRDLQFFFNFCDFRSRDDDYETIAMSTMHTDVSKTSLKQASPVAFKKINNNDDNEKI
The assay is described as follows: Radioligand displacement binding on SK-N-MC membranes.

In the next assay the target is T3, hY2-receptor (Homo sapiens, UniProt P49146).
T3 sequence (P49146 1-381): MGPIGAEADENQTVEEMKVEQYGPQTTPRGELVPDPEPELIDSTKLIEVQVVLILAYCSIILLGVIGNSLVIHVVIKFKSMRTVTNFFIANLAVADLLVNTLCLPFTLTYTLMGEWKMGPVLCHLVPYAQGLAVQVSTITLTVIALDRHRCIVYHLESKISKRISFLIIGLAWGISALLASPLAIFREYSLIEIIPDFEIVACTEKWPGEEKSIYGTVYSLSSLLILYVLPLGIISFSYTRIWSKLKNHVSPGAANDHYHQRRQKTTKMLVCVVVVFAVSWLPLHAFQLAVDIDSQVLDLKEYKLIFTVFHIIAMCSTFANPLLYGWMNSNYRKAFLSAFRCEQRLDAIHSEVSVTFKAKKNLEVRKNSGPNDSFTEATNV
Nature of the assay: Radioligand displacement binding on SMS-KAN membranes.

Regarding `CC[C@H](C)[C@H](NC(=O)[C@H](Cc1ccc(O)cc1)NC(=O)[C@H](Cc1c[nH]cn1)NC(=O)[C@H](CCCNC(=N)N)NC(=O)CCCCCNC(=O)[C@H](CCCCN)NC(=O)[C@H](CO)NC(=O)[C@@H]1CCCN1C(=O)[C@@H](N)Cc1ccc(O)cc1)C(=O)N[C@@H](CC(N)=O)C(=O)N[C@@H](CC(C)C)C(=O)N[C@H](C(=O)N[C@H](C(=O)N[C@@H](CCCNC(=N)N)C(=O)N1CCC[C@H]1C(=O)N[C@@H](CCCNC(=N)N)C(=O)N[C@@H](Cc1ccc(O)cc1)C(N)=O)[C@@H](C)O)[C@@H](C)CC` [[Ahx^5-24, ^P34]-NPY] (H-YPSK[Ahx]RHYINLITRPRY-NH2), the IC50 at hY5-receptor is above 10000 nM; on hY4-receptor it was 514 nM.

Turning to `CC[C@H](C)[C@H](NC(=O)[C@H](Cc1ccc(O)cc1)NC(=O)[C@H](Cc1c[nH]cn1)NC(=O)[C@H](CCCNC(=N)N)NC(=O)[C@H](CC(C)C)NC(=O)[C@H](C)NC(=O)[C@H](CO)NC(=O)[C@H](Cc1ccc(O)cc1)NC(=O)CCCCCNC(=O)[C@H](CC(N)=O)NC(=O)[C@H](CC(=O)O)NC(=O)[C@@H]1CCCN1C(=O)[C@H](CCCCN)NC(=O)[C@H](CO)NC(=O)[C@@H]1CCCN1C(=O)[C@@H](N)Cc1ccc(O)cc1)C(=O)N[C@@H](CC(N)=O)C(=O)N[C@@H](CC(C)C)C(=O)N[C@H](C(=O)N[C@H](C(=O)N[C@@H](CCCNC(=N)N)C(=O)N[C@@H](CCC(N)=O)C(=O)N[C@@H](CCCNC(=N)N)C(=O)N[C@@H](Cc1ccc(O)cc1)C(N)=O)[C@@H](C)O)[C@@H](C)CC` [[Ahx^8-20]-NPY] (H-YPSKPDN[Ahx]YSALRHYINLITRQRY-NH2), the IC50 at hY5-receptor was 31 nM; on hY4-receptor, 67 nM.

`CC[C@H](C)[C@H](NC(=O)[C@H](Cc1ccc(O)cc1)NC(=O)[C@H](Cc1cnc[nH]1)NC(=O)[C@H](CCCNC(=N)N)NC(=O)CCCCCNC(=O)[C@H](CCCCN)NC(=O)[C@H](CO)NC(=O)[C@@H]1CCCN1C(=O)[C@@H](N)Cc1ccc(O)cc1)C(=O)N[C@@H](CC(N)=O)C(=O)N[C@@H](CC(C)C)C(=O)N[C@H](C(=O)N[C@H](C(=O)N[C@@H](CCCNC(=N)N)C(=O)N[C@@H](CCC(N)=O)C(=O)N[C@@H](CCCNC(=N)N)C(=O)N[C@@H](Cc1ccc(O)cc1)C(N)=O)[C@@H](C)O)[C@@H](C)CC` [[Ahx^5-24]-NPY] (H-YPSK[Ahx]RHYINLITRQRY-NH2): the IC50 at hY5-receptor is 795 nM; at hY1-receptor, above 1000 nM; on hY4-receptor it was 600 nM; at hY2-receptor, 1.4 nM.

`CC[C@H](C)[C@H](NC(=O)[C@H](Cc1ccc(O)cc1)NC(=O)[C@H](CCCNC(=N)N)NC(=O)[C@H](CCCNC(=N)N)NC(=O)[C@H](CC(C)C)NC(=O)[C@H](CC(=O)O)NC(=O)[C@H](C)NC(=O)[C@H](C)NC(=O)CCCCCNC(=O)[C@H](CCC(=O)O)NC(=O)[C@H](CC(C)C)NC(=O)[C@@H]1CCCN1C(=O)[C@H](C)N)C(=O)N[C@@H](CC(N)=O)C(=O)N[C@@H](CCSC)C(=O)N[C@@H](CC(C)C)C(=O)N[C@H](C(=O)N[C@@H](CCCNC(=N)N)C(=O)N1CCC[C@H]1C(=O)N[C@@H](CCCNC(=N)N)C(=O)N[C@@H](Cc1ccc(O)cc1)C(N)=O)[C@@H](C)O` [[Ahx^5-20]-hPP] (H-APLE[Ahx]AADLRRYINMLTRPRY-NH2): the IC50 on hY5-receptor is above 7000 nM; on hY1-receptor it was above 1500 nM; on hY4-receptor, 216 nM; at hY2-receptor, above 1000 nM.

In the case of `CC[C@H](C)[C@H](NC(=O)[C@H](Cc1ccc(O)cc1)NC(=O)[C@H](CCCNC(=N)N)NC(=O)[C@H](CCCNC(=N)N)NC(=O)CCCCCNC(=O)[C@H](CCC(=O)O)NC(=O)[C@H](CC(C)C)NC(=O)[C@@H]1CCCN1C(=O)[C@H](C)N)C(=O)N[C@@H](CC(N)=O)C(=O)N[C@@H](CCSC)C(=O)N[C@@H](CC(C)C)C(=O)N[C@H](C(=O)N[C@@H](CCCNC(=N)N)C(=O)N1CCC[C@H]1C(=O)N[C@@H](CCCNC(=N)N)C(=O)N[C@@H](Cc1ccc(O)cc1)C(N)=O)[C@@H](C)O` [[Ahx^5-24]-hPP] (H-APLE[Ahx]RRYINMLTRPRY-NH2), the IC50 at hY5-receptor is above 1000 nM; on hY1-receptor it was above 500 nM; on hY4-receptor it was 144 nM; at hY2-receptor, above 1000 nM.
